# Key:
# [1] = Exemplary case: AD patient given daily glibenclamide by monthly depot intramuscular injection, neurological testing; type: in vivo, human; conditions: person with AD; 1.0 mg per day via monthly depot intramuscular injection
# Description: The following exemplary descriptions illustrate ways to implement the methods and treatments disclosed herein. […] A diagnosis of AD is made as other causes are ruled out. […] Depot injection is chosen in order to optimize patient compliance.
# [2] = Exemplary case: type 2 diabetic patient with AD given daily glibenclamide, metformin ceased; type: in vivo, human; conditions: 10 mg per day
# Description: The following exemplary descriptions illustrate ways to implement the methods and treatments disclosed herein.
# A type 2 diabetic […] presents to their family physician with complaints of forgetfulness and increasing confusion. They are being treated with metformin and diet controls for their Type 2 diabetes. The patient is diagnosed with AD upon referral to a geriatrician and upon clinical, laboratory and imaging investigations.
smiles,measurement,setting,value
"COc1ccc(Cl)cc1C(=O)NCCc1ccc(S(=O)(=O)NC(=O)NC2CCCCC2)cc1 [glibenclamide, 5-chloro-N-[2-[4-(cyclohexylcarbamoylsulfamoyl)phenyl]ethyl]-2-methoxy-benzamide]",Neurological testing: AD symptoms,[1],stabilization of symptoms
same,Blood glucose measurements and HbA1C levels,[2],stable blood glucose measurements and HbA1C levels
same,Episodes of forgetfulness,[2],episodes of forgetfulness are waning
